Key:
HuR [1] = target: T1, HuR (Homo sapiens, UniProt Q15717); test: RP-CONA on-bead confocal assay: inhibition of mCherry-HuR binding to pri-miR-7-1-CTL RNA in cell lysate; confirmed by RNA pull-down/western blot; type: biochemical
T1 construct: gene ELAVL1; mCherry-HuR (HuR open reading frame), overexpressed in HuR KO HEK293T lysate

HuR [2] = target: T1, HuR; test: RP-CONA on-bead confocal assay: inhibition of mCherry-HuR binding to pri-miR-7-1-CTL RNA in cell lysate; confirmed by RNA pull-down/western blot and RIP in cells; type: biochemical

T1 sequence (Q15717 2-326): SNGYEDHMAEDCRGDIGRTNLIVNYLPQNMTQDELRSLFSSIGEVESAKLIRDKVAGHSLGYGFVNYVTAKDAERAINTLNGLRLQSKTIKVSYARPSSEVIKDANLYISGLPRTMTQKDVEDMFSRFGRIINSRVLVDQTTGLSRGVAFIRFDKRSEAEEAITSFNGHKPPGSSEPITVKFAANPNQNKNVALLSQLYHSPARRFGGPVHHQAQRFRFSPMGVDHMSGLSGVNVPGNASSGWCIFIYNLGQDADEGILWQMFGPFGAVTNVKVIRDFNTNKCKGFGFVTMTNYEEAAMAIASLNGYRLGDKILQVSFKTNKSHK

Structure (SMILES) | IC50 (HuR [1]) [nM] | IC50 (HuR [2]) [nM]
O=c1cc(-c2ccc(O)c(O)c2)oc2cc(O)cc(O)c12 [luteolin] | 2030 ± 250 | 
O=c1c(O)c(-c2ccc(O)c(O)c2)oc2cc(O)cc(O)c12 [quercetin] |  | 2150 ± 160
